Data reported in patent publication EP0191399A2, “Benz[a]anthraquinone compounds, a microbial process for their preparation and their use as medicaments” (priority 1985, dated 1986).
In brackets after ≈: the same amount, converted by molar mass. Like-named read-outs stand apart in the source and are kept apart here.

How the values were obtained:
[1] = tested on: Adriamycin-resistant P388 leukemia cells (P388/ADR); assay: Growth inhibition of cultured Adriamycin-resistant (multi-drug resistant) P388 leukemia cells; assay type: cell-based; conditions: for IC50: Mus musculus, read-out: IC50 (μg/ml) P388/ADR; for Ratio (P388/ADR to P388/S): ratio of IC50 P388/ADR to IC50 P388/S
[2] = tested on: Adriamycin-sensitive P388 leukemia cells (P388/S); assay: Growth inhibition of cultured Adriamycin-sensitive P388 leukemia cells; assay type: cell-based; conditions: Mus musculus, read-out: IC50 (μg/ml) P388/S
Source text: The substance MH190 of the present invention are capable of inhibiting the growth of cultured Adriamycin-sensitive P388 leukemia cells (P388/S) and Adriamycin-resistant P388 leukemia cells (P388/ADR) in very low concentrations.

[3] = Solubility in solvents (physicochemical properties, Table 5); conditions: for Solubility (1) Soluble: solvents in which the substance is soluble; for Solubility (2) Sparingly soluble: solvents in which the substance is sparingly soluble
[4] = Stability (physicochemical properties, Table 5); conditions: light, acid, alkali, silica gel
[5] = Acute toxicity (LD50), single intraperitoneal injection; conditions: mouse, in vivo, ip; single intraperitoneal injection into mice
L1210 leukemia cells = assay: Anti-tumor activity against intraperitoneally transplanted L1210 leukemia in mice (life prolongation); assay type: in vivo, CDF1 mice; conditions: for Percentage life prolongation: intraperitoneal for 10 days, survival of saline control taken as 100
Description: L1210 leukemia cells (1 x 10^5 per animal) were transplanted intraperitoneally into CDF1 mice. Immediately after the transplantation, a solution of MH190 Y2 was injected intraperitoneally for 10 days in a dose of […]. The percentage life prolongation of each of the treated mice was checked and the results are shown below, with the number of days of survival of control mice to which physiological saline had been administered being taken as 100.

Row | Compound | IC50 ([1]; cultured P388/ADR cells) | Ratio (P388/ADR to P388/S) [1] | IC50 ([2]; P388/S) | Solubility (1) Soluble [3] | Solubility (2) Sparingly soluble [3] | Stability [4] | IC50 ([2]; cultured P388/S cells) | IC50 ([1]; P388/ADR) | LD50 [5] | Percentage life prolongation (L1210 leukemia cells; dose 0.156 mg/Kg/dat) | Percentage life prolongation (L1210 leukemia cells; dose 0.313 mg/Kg/dat) | Percentage life prolongation (L1210 leukemia cells; dose 0.625 mg/Kg/dat) | Percentage life prolongation (L1210 leukemia cells; dose 1.25 mg/Kg/dat) | Percentage life prolongation (L1210 leukemia cells; dose 2.5 mg/Kg/dat) | Percentage life prolongation (L1210 leukemia cells; dose 5 mg/Kg/dat) | anti-tumor activities (L1210 leukemia cells; doses ranging from 0.313 to 5 mg/kg/day)
1 | COc1cccc2c1C(=O)c1c(O)c3c(c(O)c1C2=O)C[C@@](O)(C(=O)CO)C[C@@H]3O[C@H]1C[C@H](N)[C@H](O)[C@H](C)O1 [Adriamycin, reference compound] | 0.38 µg/mL (≈ 0.699 µM) | 31.7 | 0.012 µg/mL (≈ 0.0221 µM) | – | – | – | – | – | – | – | – | – | – | – | – | –
2 | CC1OC(OC2CCC(OC3(C)CC(=O)C4(O)C5=C(C=CC4(O)C3)C(=O)c3c(ccc(C4CC(O)C(OC6C=CC(=O)C(C)O6)C(C)O4)c3O)C5=O)OC2C)C=CC1=O (centres unmarked) [MH190 Y1, Saquayamycin A] | 0.056 µg/mL (≈ 0.0682 µM) | 0.84 | – | CHCl3, ethyl acetate, butyl acetate, methanol, acetonitrile, acetone, dimethyl sulfoxide | H2O, hexane, petroleum ether | instable against light, acid and alkali changed to MH190 Y2 on silica gel | 0.067 µg/mL (≈ 0.0816 µM) | – | – | – | – | – | – | – | – | –
3 | CC1OC(OC2C(O)CC(c3ccc4c(c3O)C(=O)C3=C(C4=O)C4(O)C(=O)CC(C)(O)CC4(O)C=C3)OC2C)C=CC1=O (centres unmarked) [MH190 Y1-1, Saquayamycin A1] | – | 0.51 | 0.175 µg/mL (≈ 0.293 µM) | CHCl3, ethyl acetate, butyl acetate, methanol, acetonitrile, acetone, dimethyl sulfoxide | H2O, hexane, petroleum ether | instable against light, acid and alkali changed to MH190 Y2 on silica gel | – | 0.09 µg/mL (≈ 0.151 µM) | – | – | – | – | – | – | – | –
4 | CC1OC(OC2CCC(OC3(C)CC(=O)C4(O)C5=C(C=CC4(O)C3)C(=O)c3c(ccc(C4CC6OC7CC(=O)C(C)OC7OC6C(C)O4)c3O)C5=O)OC2C)C=CC1=O (centres unmarked) [MH190 Y2, Saquayamycin B] | – | 0.84 | 0.08 µg/mL (≈ 0.0975 µM) | CHCl3, ethyl acetate, butyl acetate, methanol, acetonitrile, acetone, dimethyl sulfoxide | H2O, hexane, petroleum ether | instable against light, acid and alkali | – | 0.067 µg/mL (≈ 0.0816 µM) | 6.25 to 12.5 mg/kg | 102 | 127 | 120 | 127 | 151 | 175 | appreciable anti-tumor activities
5 | CC1OC2OC3C(C)OC(c4ccc5c(c4O)C(=O)C4=C(C5=O)C5(O)C(=O)CC(C)(O)CC5(O)C=C4)CC3OC2CC1=O (centres unmarked) [MH190 Y2-1, Saquayamycin B1] | – | 0.57 | 0.13 µg/mL (≈ 0.218 µM) | CHCl3, ethyl acetate, butyl acetate, methanol, acetonitrile, acetone, dimethyl sulfoxide | H2O, hexane, petroleum ether | instable against light, acid and alkali | – | 0.074 µg/mL (≈ 0.124 µM) | – | – | – | – | – | – | – | –
6 | CC1OC(OC2CCC(OC3(C)CC(=O)C4(O)C5=C(C=CC4(O)C3)C(=O)c3c(ccc(C4CC(O)C(OC6CCC(=O)C(C)O6)C(C)O4)c3O)C5=O)OC2C)CCC1=O (centres unmarked) [MH190 Y3, Saquayamycin C] | – | 0.83 | 0.072 µg/mL (≈ 0.0873 µM) | CHCl3, ethyl acetate, butyl acetate, methanol, acetonitrile, acetone, dimethyl sulfoxide | H2O, hexane, petroleum ether | instable against light, acid and alkali | – | 0.06 µg/mL (≈ 0.0727 µM) | – | – | – | – | – | – | – | –
7 | CC1OC(OC2C(O)CC(c3ccc4c(c3O)C(=O)C3=C(C4=O)C4(O)C(=O)CC(C)(O)CC4(O)C=C3)OC2C)CCC1=O (centres unmarked) [MH190 Y3-1, Saquayamycin C1] | – | – | – | CHCl3, ethyl acetate, butyl acetate, methanol, acetonitrile acetone, dimethyl sulfoxide | H2O, hexane, petroleum ether | instable against light, acid and alkali | – | – | – | – | – | – | – | – | – | –
8 | CC1OC(OC2CCC(OC3(C)CC(=O)C4(O)C5=C(C=CC4(O)C3)C(=O)c3c(ccc(C4CC6OC7CC(=O)C(C)OC7OC6C(C)O4)c3O)C5=O)OC2C)CCC1=O (centres unmarked) [MH190 Y4, Saquayamycin D] | – | 0.86 | 0.07 µg/mL (≈ 0.0851 µM) | CHCl3, ethyl acetate, butyl acetate, methanol, acetonitrile, acetone, dimethyl sulfoxide | H2O, hexane, petroleum ether | instable against light, acid and alkali | – | 0.06 µg/mL (≈ 0.0729 µM) | – | – | – | – | – | – | – | –
